# ± gives the standard deviation of the averaged measurements.
# Test: TIMS collisional cross section (CCS, N2) of the lipid ion; higher = larger ion cross section
# Settings: ionization mode: positive, one isomer drawn
Compound,TIMS collisional cross section (sample type: Liver),TIMS collisional cross section (sample type: plasma),TIMS collisional cross section (sample type: HeLa)
CCCCCCCCCCCCCCCCCCCCCC(=O)OC[C@@H](COC(=O)CCCCCCCCCCCCCCCCC)OC(=O)CCCCCCCCCCCCCCCCCCC [TG 18:0_20:0_22:0] (ion (formula + adduct): [C63H122O6+NH4] 1+),349.3 Å²,349.1 Å²,–
CC/C=C\C/C=C\C/C=C\C/C=C\C/C=C\CCCCCC(=O)OC[C@@H](COC(=O)CCCCCCCCCCCCCCCCC)OC(=O)CCC/C=C\C/C=C\C/C=C\C/C=C\CCCCC [TG 18:0_20:4_22:5] (ion (formula + adduct): [C63H104O6+NH4] 1+),–,–,334.8 Å²
CCCCCCCCCCCCCCCCCCCCCC(=O)OC[C@@H](COC(=O)CCCCCCCCCCCCCCCCC)OC(=O)CCCCCCCCCCCCCCCCCCCC [TG 18:0_21:0_22:0] (ion (formula + adduct): [C64H124O6+NH4] 1+),351.7 Å²,352.7 Å²,–
CCCCCCCCCCCCCCCCCCCCCC(=O)OC[C@@H](COC(=O)CCCCCCCCCCCCCCCCC)OC(=O)CCCCCCCCCCCCCCCCCCCCC [TG 18:0_22:0_22:0] (ion (formula + adduct): [C65H126O6+NH4] 1+),355.9 Å²,355.2 Å²,–
CCCCCCCC/C=C\CCCCCCCCCCCC(=O)OC[C@@H](COC(=O)CCCCCCCCCCCCCCCCC)OC(=O)CCCCCCCCCCCCCCCCCCCCC [TG 18:0_22:0_22:1] (ion (formula + adduct): [C65H124O6+NH4] 1+),–,352.8 Å²,–
CCCCC/C=C\C/C=C\CCCCCCCCCCCC(=O)OC[C@@H](COC(=O)CCCCCCCCCCCCCCCCC)OC(=O)CCCCCCCCCCCCCCCCCCCCC [TG 18:0_22:0_22:2] (ion (formula + adduct): [C65H122O6+NH4] 1+),–,351 Å²,–
CCCCCCCC/C=C\CCCCCCCCCCCC(=O)OC[C@@H](COC(=O)CCCCCCCCCCCCCCCCC)OC(=O)CCCCCCCCCCC/C=C\CCCCCCCC [TG 18:0_22:1_22:1] (ion (formula + adduct): [C65H122O6+NH4] 1+),–,–,350.2 Å²
CCCCC/C=C\C/C=C\CCCCCCCC(=O)OC[C@@H](COC(=O)CCCCCCC/C=C\CCCCCCCC)OC(=O)CCCCCCC/C=C\CCCCCCCC [TG 18:1_18:1_18:2] (ion (formula + adduct): [C57H102O6+NH4] 1+),–,324.25 ± 0.35 Å²,324.3 Å²
CCCCCCCC/C=C\CCCCCCCC(=O)OC[C@H](COC(=O)CCCCCCC/C=C\CCCCCCCCC)OC(=O)CCCCCCC/C=C\CCCCCCCC [TG 18:1_18:1_19:1] (ion (formula + adduct): [C58H106O6+NH4] 1+),–,–,329.1 Å²
CCCCCCCC/C=C\CCCCCCCCCC(=O)OC[C@@H](COC(=O)CCCCCCC/C=C\CCCCCCCC)OC(=O)CCCCCCC/C=C\CCCCCCCC [TG 18:1_18:1_20:1] (ion (formula + adduct): [C59H108O6+NH4] 1+),–,332.4 Å²,332.1 Å²
CCCCC/C=C\C/C=C\C/C=C\CCCCCCC(=O)OC[C@@H](COC(=O)CCCCCCC/C=C\CCCCCCCC)OC(=O)CCCCCCC/C=C\CCCCCCCC [TG 18:1_18:1_20:3] (ion (formula + adduct): [C59H104O6+NH4] 1+),330.2 Å²,–,–
CCCCCCCC/C=C\CCCCCCCC(=O)OC[C@H](COC(=O)CCCCCCCCCCCCCCCCCCCC)OC(=O)CCCCCCC/C=C\CCCCCCCC [TG 18:1_18:1_21:0] (ion (formula + adduct): [C60H112O6+NH4] 1+),–,336.2 Å²,–
CCCCCCCC/C=C\CCCCCCCC(=O)OC[C@H](COC(=O)CCCCCCCCCCCCCCCCCCCCC)OC(=O)CCCCCCC/C=C\CCCCCCCC [TG 18:1_18:1_22:0] (ion (formula + adduct): [C61H114O6+NH4] 1+),339.7 Å²,339.3 Å²,–
CCCCCCCC/C=C\CCCCCCCCCCCC(=O)OC[C@@H](COC(=O)CCCCCCC/C=C\CCCCCCCC)OC(=O)CCCCCCC/C=C\CCCCCCCC [TG 18:1_18:1_22:1] (ion (formula + adduct): [C61H112O6+NH4] 1+),–,–,337.8 Å²
CCCCC/C=C\C/C=C\C/C=C\C/C=C\CCCCCC(=O)OC[C@@H](COC(=O)CCCCCCC/C=C\CCCCCCCC)OC(=O)CCCCCCC/C=C\CCCCCCCC [TG 18:1_18:1_22:4] (ion (formula + adduct): [C61H106O6+NH4] 1+),334.9 Å²,333.8 Å²,–
CC/C=C\C/C=C\C/C=C\C/C=C\C/C=C\CCCCCC(=O)OC[C@@H](COC(=O)CCCCCCC/C=C\CCCCCCCC)OC(=O)CCCCCCC/C=C\CCCCCCCC [TG 18:1_18:1_22:5] (ion (formula + adduct): [C61H104O6+NH4] 1+),–,332.6 Å²,332.3 Å²
CC/C=C\C/C=C\C/C=C\C/C=C\C/C=C\C/C=C\CCC(=O)OC[C@@H](COC(=O)CCCCCCC/C=C\CCCCCCCC)OC(=O)CCCCCCC/C=C\CCCCCCCC [TG 18:1_18:1_22:6] (ion (formula + adduct): [C61H102O6+NH4] 1+),–,–,331.3 Å²
CCCCC/C=C\C/C=C\CCCCCCCC(=O)OC[C@@H](COC(=O)CCCCCCC/C=C\CCCCCCCC)OC(=O)CCCCCCC/C=C\C/C=C\CCCCC [TG 18:1_18:2_18:2] (ion (formula + adduct): [C57H100O6+NH4] 1+),322.5 ± 0.14 Å²,322.17 ± 0.57 Å²,–
CC/C=C\C/C=C\C/C=C\CCCCCCCC(=O)OC[C@@H](COC(=O)CCCCCCC/C=C\CCCCCCCC)OC(=O)CCCCCCC/C=C\C/C=C\CCCCC [TG 18:1_18:2_18:3] (ion (formula + adduct): [C57H98O6+NH4] 1+),–,319.9 Å²,–
CCCCC/C=C\C/C=C\CCCCCCCC(=O)O[C@H](COC(=O)CCCCCCC/C=C\CCCCCCCC)COC(=O)CCCCCCCCCCCCCCCCCC [TG 18:1_18:2_19:0] (ion (formula + adduct): [C58H106O6+NH4] 1+),329.2 Å²,–,–
CCCCC/C=C\C/C=C\CCCCCCCC(=O)O[C@H](COC(=O)CCCCCCC/C=C\CCCCCCCC)COC(=O)CCCCCCC/C=C\CCCCCCCCC [TG 18:1_18:2_19:1] (ion (formula + adduct): [C58H104O6+NH4] 1+),327 Å²,327.3 Å²,327.7 Å²
CCCCC/C=C\C/C=C\CCCCCCCC(=O)O[C@H](COC(=O)CCCCCCC/C=C\CCCCCCCC)COC(=O)CCCCCCCCCCCCCCCCCCC [TG 18:1_18:2_20:0] (ion (formula + adduct): [C59H108O6+NH4] 1+),332.3 Å²,–,–
CCCCC/C=C\C/C=C\CCCCCCCC(=O)O[C@H](COC(=O)CCCCCCC/C=C\CCCCCCCC)COC(=O)CCCCCCCCC/C=C\CCCCCCCC [TG 18:1_18:2_20:1] (ion (formula + adduct): [C59H106O6+NH4] 1+),–,330.8 Å²,331.8 Å²
CCCCC/C=C\C/C=C\C/C=C\C/C=C\CCCC(=O)OC[C@@H](COC(=O)CCCCCCC/C=C\CCCCCCCC)OC(=O)CCCCCCC/C=C\C/C=C\CCCCC [TG 18:1_18:2_20:4] (ion (formula + adduct): [C59H100O6+NH4] 1+),325.7 Å²,–,–
CCCCC/C=C\C/C=C\CCCCCCCC(=O)O[C@H](COC(=O)CCCCCCC/C=C\CCCCCCCC)COC(=O)CCCCCCCCCCCCCCCCCCCC [TG 18:1_18:2_21:0] (ion (formula + adduct): [C60H110O6+NH4] 1+),334.4 Å²,–,–
CCCCC/C=C\C/C=C\CCCCCCCC(=O)O[C@H](COC(=O)CCCCCCC/C=C\CCCCCCCC)COC(=O)CCCCCCCCCCCCCCCCCCCCC [TG 18:1_18:2_22:0] (ion (formula + adduct): [C61H112O6+NH4] 1+),338.2 Å²,337.6 Å²,–
CCCCC/C=C\C/C=C\CCCCCCCC(=O)O[C@H](COC(=O)CCCCCCC/C=C\CCCCCCCC)COC(=O)CCCCCCCCCCC/C=C\CCCCCCCC [TG 18:1_18:2_22:1] (ion (formula + adduct): [C61H110O6+NH4] 1+),335.3 Å²,335 Å²,–
CCCCC/C=C\C/C=C\CCCCCCCCCCCC(=O)OC[C@@H](COC(=O)CCCCCCC/C=C\CCCCCCCC)OC(=O)CCCCCCC/C=C\C/C=C\CCCCC [TG 18:1_18:2_22:2] (ion (formula + adduct): [C61H108O6+NH4] 1+),–,335.8 Å²,–
CCCCC/C=C\C/C=C\C/C=C\C/C=C\CCCCCC(=O)OC[C@@H](COC(=O)CCCCCCC/C=C\CCCCCCCC)OC(=O)CCCCCCC/C=C\C/C=C\CCCCC [TG 18:1_18:2_22:4] (ion (formula + adduct): [C61H104O6+NH4] 1+),332.5 Å²,332.1 Å²,–
CC/C=C\C/C=C\C/C=C\C/C=C\C/C=C\C/C=C\CCC(=O)OC[C@@H](COC(=O)CCCCCCC/C=C\CCCCCCCC)OC(=O)CCCCCCC/C=C\C/C=C\CCCCC [TG 18:1_18:2_22:6] (ion (formula + adduct): [C61H100O6+NH4] 1+),–,329 Å²,–
